According to patent US20090124819A1, “2-SUBSTITUTED VITAMIN D DERIVATIVES” (WISCONSIN ALUMNI RESEARCH FOUNDATION, priority 2001, published 2009):

biological target: T1, bovine thymus VDR (Bos taurus, UniProt Q28037); assay: Binding to bovine thymus vitamin D receptor (VDR), displacement of [3H]-1α,25-dihydroxyvitamin D3; conditions: X=(y/x)×100 from concentrations inhibiting 50% of [3H]-1α,25-dihydroxyvitamin D3 binding; 1α,25-dihydroxyvitamin D3 taken as 100
T1 construct: Bovine thymus VDR was purchased from Yamasa Biochemical; purchased Yamasa Biochemical (Choshi, Chiba Prefecture, Japan) lot; 112831; host or cells: bovine thymus
T1 sequence (Q28037 1-426): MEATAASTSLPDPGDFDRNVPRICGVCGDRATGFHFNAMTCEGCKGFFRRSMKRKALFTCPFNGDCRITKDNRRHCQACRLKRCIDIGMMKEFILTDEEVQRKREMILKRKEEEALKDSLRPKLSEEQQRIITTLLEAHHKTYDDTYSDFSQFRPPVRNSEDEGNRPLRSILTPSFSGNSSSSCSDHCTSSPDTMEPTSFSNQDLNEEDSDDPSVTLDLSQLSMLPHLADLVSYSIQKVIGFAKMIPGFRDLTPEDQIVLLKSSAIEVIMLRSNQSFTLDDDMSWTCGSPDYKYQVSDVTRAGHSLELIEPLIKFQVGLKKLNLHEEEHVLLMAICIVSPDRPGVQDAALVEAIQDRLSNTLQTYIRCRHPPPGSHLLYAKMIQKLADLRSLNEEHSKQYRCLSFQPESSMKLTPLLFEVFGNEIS
Protocol: The capability of the vitamin D derivatives of the present invention to bind to bovine thymus VDR was tested.
The vitamin D derivatives of the present invention used were the compounds synthesized in the above-described examples, i.e., (5Z,7E)-(1S,3R)-2,2-dimethyl-9,10-seco-5,7,10(19)-cholestatrien-1,3,25-triol (compound 21), (5Z,7E)-(1R,3S)-2,2-dimethyl-9,10-seco-5,7,10(19)-cholestatrien-1,3,25-triol (compound 22), (5Z,7E)-(1S,3S)-2,2-dimethyl-9,10-seco-5,7,10(19)-cholestatrien-1,3,25-triol (compound 23), and (5Z,7E)-(1R,3R)-2,2-dimethyl-9,10-seco-5,7,10(19)-cholestatrien-1,3,25-triol (compound 24).
In connection with each of compounds 21 to 24 and 1α,25-dihydroxyvitamin D3 (used as a standard), ethanol solutions at various concentrations were prepared in the following manner: In the case of 1α,25-dihydroxyvitamin D3, serial dilutions were prepared at concentrations of 5 nanograms, 500 picograms, 250 picograms, 125 picograms, 63 picograms, 32 picograms, 16 picograms, 8 picograms, 4 picograms, 2 picograms, 1 picogram, 0.5 picogram, and 0.25 picogram as the amount of the compound contained in 50 microliters. In the case of the 1α,3β-compound and the 1α,3α-compound for the configurations of the substituents at the 1-position and the 3-position, serial dilutions were prepared at concentrations of 500 nanograms, 50 nanograms, 25 nanograms, 13 nanograms, 6.3 nanograms, 3.2 nanograms, 1.6 nanograms, 800 picograms, 400 picograms, 200 picograms, 20 picograms, and 2 picograms. In the case of the 1β,3β-compound and the 1β,3α-compound for the configurations of the substituents at the 1-position and the 3-position, serial dilutions were prepared at concentrations of 500 nanograms, 50 nanograms, 5 nanograms, 500 picograms, and 50 picograms.
Bovine thymus VDR was purchased from Yamasa Biochemical (Choshi, Chiba Prefecture, Japan; lot. 112831), and one ampoule thereof (ca. 25 mg) was dissolved in 55 ml of 0.05 M phosphate-0.5 M potassium buffer (pH 7.4).
The ethanol solution […] of each of compounds 21 to 24 or 1α,25-dihydroxyvitamin D3 and the receptor solution (500 μl) were placed in a test tube, and pre-incubated for 1 hour at room temperature. Then, a [^3H]-1α,25-dihydroxyvitamin D3 solution (50 μl) was added at a final concentration of 0.1 nM, and the mixture was incubated overnight at 4° C. Dextran-coated charcoal was added to the reaction mixture, followed by mixing. […] The supernatant (500 μl) was mixed with ACS-II (9.5 ml) (Amersham, England) for radioactivity measurement.
The relative VDR-binding potency of each of Compounds 21 to 24 was calculated from the following equation, with the VDR-binding potency of 1α,25-dihydroxyvitamin D3 being taken as 100. […]

Row | Binding potency (relative VDR-binding potency) | SMILES
1 | 3 | C=C1/C(=C\C=C2/CCC[C@@]3(C)C2CCC3[C@H](C)CCCC(C)(C)O)C[C@@H](O)C(C)(C)[C@@H]1O (stereo partly drawn) [Compound 21, (5Z,7E)-(1S,3R)-2,2-Dimethyl-9,10-seco-5,7,10(19)-cholestatrien-1,3,25-triol]
2 | 0.005 | C=C1C(=CC=C2CCCC3(C)C2CCC3C(C)CCCC(C)(C)O)CC(O)C(C)(C)C1O [Compound 22, (5Z,7E)-(1R,3S)-2,2-Dimethyl-9,10-seco-5,7,10(19)-cholestatrien-1,3,25-triol]
3 | 0.06 | C=C1/C(=C\C=C2/CCC[C@@]3(C)C2CCC3[C@H](C)CCCC(C)(C)O)C[C@H](O)C(C)(C)[C@@H]1O (stereo partly drawn) [Compound 23, (5Z,7E)-(1S,3S)-2,2-Dimethyl-9,10-seco-5,7,10(19)-cholestatrien-1,3,25-triol]
4 | <0.001 | C=C1/C(=C\C=C2/CCC[C@@]3(C)C2CCC3[C@H](C)CCCC(C)(C)O)C[C@@H](O)C(C)(C)[C@H]1O (stereo partly drawn) [Compound 24, (5Z,7E)-(1R,3R)-2,2-Dimethyl-9,10-seco-5,7,10(19)-cholestatrien-1,3,25-triol]
